Literature values as cited in US12728096B2, “Pharmaceutical composition comprising enzalutamide” (Synthon B.V., priority 2019, dated 2026).

Experiments:
[1] = pH 1 to 11

permeability (BCS): high permeability | solubility (BCS): low solubility | solubility in water [1]: practically insoluble
Compound: CNC(=O)c1ccc(N2C(=S)N(c3ccc(C#N)c(C(F)(F)F)c3)C(=O)C2(C)C)cc1F [Enzalutamide, 4-[3-[4-cyano-3-(trifluoromethyl)phenyl]-5,5-dimethyl-4-oxo-2-sulfanylideneimidazolidin-1-yl]-2-fluoro-N-methylbenzamide]
